Data from paper PMC5980230, “Mucosal absorption of therapeutic peptides by harnessing the endogenous sorting of glycosphingolipids” (eLife, 2018).
Several values for one entry are separate records, joined by “and”; a condition that tells them apart may be missing. Equal entries are not always repeated.

Key:
[1] = Intraperitoneal glucose tolerance test; assay type: in vivo; design: unit not given here; conditions: IP injected, individual mice, not corrected
From the text: To test for absorption and biologic incretin activity in vivo, we gastrically gavaged equal doses (10 nmol/kg) of the C6:0-GM1-GLP-1 fusion, the unfused GLP-1 peptide (GLP-1 oral), or vehicle into wild-type mice and measured effects on glucose metabolism by glucose tolerance test (Figure 5C). […] The effect on glucose tolerance by gastrically administered C6:0-GM1-GLP-1 was similar to the effect achieved by the intraperitoneal injection of GLP-1 peptide alone, implicating an equally high level of bioavailability for the gastrically-delivered GM1-fusion molecule (Figure 5D).
For intraperitoneal glucose tolerance tests, a 10 nmol/kg dose was used to gavage overnight-fasted WT C57/BL/6 mice (male 7–9 weeks old) with GM1-GLP-1 fusion molecules or unfused GLP-1. Glucose measurements following i.p administration of 2 mg/g glucose solution were obtained from tail vein blood applied directly to glucose strips as in ([te Welscher et al., 2014]).

[2] = GLP-1 in blood by streptavidin capture and luciferase bioassay; assay type: in vivo; conditions: individual mice, Ex 3 excluded from Figure 5E
From the text: We confirmed intestinal absorption of the C6:0-GM1-GLP-1 into the systemic circulation in two ways. First, we measured GLP-1 activity in blood samples by streptavidin capture and quantitative luciferase bioassay (Figure 5E). […] In a second approach, we synthesized an all D-amino acid (non-degradable) isomer of GLP-1 coupled to AF488 to allow for direct quantitative measurement of the […] isomer in the blood using the same streptavidin capture assay as described for our reporter peptide (Figure 5A). Again, we find evidence for absorption of the GLP-1 cargo when fused to the C6:0-GM1 transport vehicle, but no absorption for the unfused GLP-1 peptide (Figure 5F). These experiments were performed in two different laboratories, using two different animal facilities with the same results. In all assays (Figure 5C–5F), we find the efficiency of intestinal absorption enabled by fusion to C6:0-GM1 was again almost as efficient as for IP injection of the peptide alone, implicating a high level of bioavailability for the GM1-fusion molecules applied by gastric gavage.

[3] = oral, 15 min after gastric gavage

Substance: GLP-1
- total area under glucose tolerance curves (AUC) [1]: 2184 and 5775 and 3223 and 5783 and 10013 and 10613 and 14078 and 12630 and 14685 and 4613 and 1628 and 6533 and 2735 and 13695 and 6728 and 15120 and 10928 and 9270 and 7061 and 9383 and 7166 and 10043 and 10253
- GLP-1 in blood, corrected for vehicle ([2]; IP-injected): 6.787 fmols per 100uls blood and 7.191 fmols per 100uls blood and 4.472 fmols per 100uls blood and 6.8463 fmols per 100uls blood and 3.406 fmols per 100uls blood and 4.493 fmols per 100uls blood and 6.695 fmols per 100uls blood and 7.88 fmols per 100uls blood and 13.0711 fmols per 100uls blood and 7.126 fmols per 100uls blood
- GLP-1 in blood, raw data not corrected for vehicle ([2]; IP-injected): 8.132 fmols in 100 uls blood and 10.5063 fmols in 100 uls blood and 7.066 fmols in 100 uls blood and 8.153 fmols in 100 uls blood and 6.729 fmols in 100 uls blood and 7.914 fmols in 100 uls blood and 21.2711 fmols in 100 uls blood and 15.3265 fmols in 100 uls blood and 7.237 fmols in 100 uls blood and 7.641 fmols in 100 uls blood
- GLP-1 in blood, corrected for vehicle [2, 3]: 0.3766 fmols per 100uls blood and 0.3584 fmols per 100uls blood and 0.3383 fmols per 100uls blood and 0.4572 fmols per 100uls blood and -1.003 fmols per 100uls blood and -1.627 fmols per 100uls blood and 2.205 fmols per 100uls blood and 0.253 fmols per 100uls blood and 1.235 fmols per 100uls blood and 0.303 fmols per 100uls blood and -0.01924 fmols per 100uls blood and 0.2681 fmols per 100uls blood and -0.002238 fmols per 100uls blood and -1.223 fmols per 100uls blood and 0.4322 fmols per 100uls blood and -3.718 fmols per 100uls blood
- GLP-1 in blood, raw data not corrected for vehicle [2, 3]: 2.657 fmols in 100 uls blood and 2.033 fmols in 100 uls blood and 5.865 fmols in 100 uls blood and 3.913 fmols in 100 uls blood and 4.895 fmols in 100 uls blood and 3.963 fmols in 100 uls blood and 0.01476 fmols in 100 uls blood and 0.3021 fmols in 100 uls blood and 0.03176 fmols in 100 uls blood and 6.977 fmols in 100 uls blood and 8.632 fmols in 100 uls blood and 4.482 fmols in 100 uls blood and 0.8266 fmols in 100 uls blood and 0.8084 fmols in 100 uls blood and 0.7883 fmols in 100 uls blood and 0.9072 fmols in 100 uls blood
